Measured values taken from BigSolDB 2.1.

Nc1ncccn1
Settings | solubility (mole fraction)
in 2-butanone, 272.65 K | 0.0201
in 2-butanone, 278.25 K | 0.0249
in 2-butanone, 283.55 K | 0.0317
in 2-butanone, 288.15 K | 0.0361
in 2-butanone, 293.15 K | 0.0418
in 2-butanone, 297.85 K | 0.0512
in 2-butanone, 302.65 K | 0.0621
in 2-butanone, 307.25 K | 0.0721
in 2-butanone, 312.55 K | 0.0865
in 2-butanone, 317.35 K | 0.0988
in 2-butanone, 323.35 K | 0.118
in 2-pentanone, 272.65 K | 0.0158
in 2-pentanone, 278.25 K | 0.0192
in 2-pentanone, 283.55 K | 0.0238
in 2-pentanone, 288.15 K | 0.027
in 2-pentanone, 293.15 K | 0.0309
in 2-pentanone, 297.85 K | 0.0372
in 2-pentanone, 302.65 K | 0.0446
in 2-pentanone, 307.25 K | 0.0513
in 2-pentanone, 312.55 K | 0.0603
in 2-pentanone, 317.35 K | 0.0684
in 2-pentanone, 323.35 K | 0.0808
in acetone, 272.65 K | 0.0222
in acetone, 278.25 K | 0.027
in acetone, 283.55 K | 0.0311
in acetone, 288.15 K | 0.0359
in acetone, 293.15 K | 0.0415
in acetone, 297.85 K | 0.0478
in acetone, 302.65 K | 0.0545
in acetone, 307.25 K | 0.0618
in acetone, 312.55 K | 0.0702
in acetone, 317.35 K | 0.0802
in acetone, 323.35 K | 0.0913
in acetonitrile, 272.65 K | 0.0108
in acetonitrile, 278.25 K | 0.0128
in acetonitrile, 283.55 K | 0.0156
in acetonitrile, 288.15 K | 0.0176
in acetonitrile, 293.15 K | 0.0203
in acetonitrile, 297.85 K | 0.0251
in acetonitrile, 302.65 K | 0.0308
in acetonitrile, 307.25 K | 0.0366
in acetonitrile, 312.55 K | 0.0449
in acetonitrile, 317.35 K | 0.0531
in acetonitrile, 323.35 K | 0.0661
in cyclohexanone, 272.65 K | 0.0371
in cyclohexanone, 278.25 K | 0.0457
in cyclohexanone, 283.55 K | 0.0529
in cyclohexanone, 288.15 K | 0.0618
in cyclohexanone, 293.15 K | 0.072
in cyclohexanone, 297.85 K | 0.0835
in cyclohexanone, 302.65 K | 0.0952
in cyclohexanone, 307.25 K | 0.109
in cyclohexanone, 312.55 K | 0.124
in cyclohexanone, 317.35 K | 0.143
in cyclohexanone, 323.35 K | 0.164
in cyclopentanone, 272.65 K | 0.0605
in cyclopentanone, 278.25 K | 0.0721
in cyclopentanone, 283.55 K | 0.0815
in cyclopentanone, 288.15 K | 0.0918
in cyclopentanone, 293.15 K | 0.103
in cyclopentanone, 297.85 K | 0.116
in cyclopentanone, 302.65 K | 0.128
in cyclopentanone, 307.25 K | 0.14
in cyclopentanone, 312.55 K | 0.154
in cyclopentanone, 317.35 K | 0.169
in cyclopentanone, 323.35 K | 0.185
in ethanol, 272.65 K | 0.00996
in ethanol, 278.25 K | 0.0138
in ethanol, 283.55 K | 0.0184
in ethanol, 288.15 K | 0.0234
in ethanol, 293.15 K | 0.0302
in ethanol, 297.85 K | 0.0384
in ethanol, 302.65 K | 0.0485
in ethanol, 307.25 K | 0.06
in ethanol, 312.55 K | 0.0765
in ethanol, 317.35 K | 0.0945
in ethanol, 323.35 K | 0.123
in ethyl acetate, 272.65 K | 0.0337
in ethyl acetate, 278.25 K | 0.0366
in ethyl acetate, 283.55 K | 0.0407
in ethyl acetate, 288.15 K | 0.0436
in ethyl acetate, 293.15 K | 0.0474
in ethyl acetate, 297.85 K | 0.0536
in ethyl acetate, 302.65 K | 0.0609
in ethyl acetate, 307.25 K | 0.0678
in ethyl acetate, 312.55 K | 0.0779
in ethyl acetate, 317.35 K | 0.0867
in ethyl acetate, 323.35 K | 0.101
in ethyl formate, 272.65 K | 0.0286
in ethyl formate, 278.25 K | 0.0364
in ethyl formate, 283.55 K | 0.0471
in ethyl formate, 288.15 K | 0.0542
in ethyl formate, 293.15 K | 0.0631
in ethyl formate, 297.85 K | 0.0772
in ethyl formate, 302.65 K | 0.0928
in ethyl formate, 307.25 K | 0.106
in ethyl formate, 312.55 K | 0.125
in ethyl formate, 317.35 K | 0.14
in ethyl formate, 323.35 K | 0.163
in isobutanol, 272.65 K | 0.00833
in isobutanol, 278.25 K | 0.0116
in isobutanol, 283.55 K | 0.0155
in isobutanol, 288.15 K | 0.02
in isobutanol, 293.15 K | 0.0259
in isobutanol, 297.85 K | 0.0331
in isobutanol, 302.65 K | 0.0423
in isobutanol, 307.25 K | 0.0528
in isobutanol, 312.55 K | 0.0669
in isobutanol, 317.35 K | 0.0828
in isobutanol, 323.35 K | 0.107
in isopentanol, 272.65 K | 0.0102
in isopentanol, 278.25 K | 0.0136
in isopentanol, 283.55 K | 0.0174
in isopentanol, 288.15 K | 0.0215
in isopentanol, 293.15 K | 0.0264
in isopentanol, 297.85 K | 0.0321
in isopentanol, 302.65 K | 0.0385
in isopentanol, 307.25 K | 0.0458
in isopentanol, 312.55 K | 0.0546
in isopentanol, 317.35 K | 0.0638
in isopentanol, 323.35 K | 0.0769
in isopropanol, 272.65 K | 0.00686
in isopropanol, 278.25 K | 0.00999
in isopropanol, 283.55 K | 0.0139
in isopropanol, 288.15 K | 0.0184
in isopropanol, 293.15 K | 0.025
in isopropanol, 297.85 K | 0.0325
in isopropanol, 302.65 K | 0.0422
in isopropanol, 307.25 K | 0.0539
in isopropanol, 312.55 K | 0.0718
in isopropanol, 317.35 K | 0.0918
in isopropanol, 323.35 K | 0.122
in methanol, 272.65 K | 0.0213
in methanol, 278.25 K | 0.028
in methanol, 283.55 K | 0.0359
in methanol, 288.15 K | 0.0444
in methanol, 293.15 K | 0.0554
in methanol, 297.85 K | 0.0675
in methanol, 302.65 K | 0.0823
in methanol, 307.25 K | 0.0984
in methanol, 312.55 K | 0.121
in methanol, 317.35 K | 0.145
in methanol, 323.35 K | 0.18
in methyl acetate, 272.65 K | 0.0189
in methyl acetate, 278.25 K | 0.0234
in methyl acetate, 283.55 K | 0.0296
in methyl acetate, 288.15 K | 0.0341
in methyl acetate, 293.15 K | 0.0397
in methyl acetate, 297.85 K | 0.0488
in methyl acetate, 302.65 K | 0.0596
in methyl acetate, 307.25 K | 0.0694
in methyl acetate, 312.55 K | 0.0838
in methyl acetate, 317.35 K | 0.0956
in methyl acetate, 323.35 K | 0.115
in n-butanol, 272.65 K | 0.00804
in n-butanol, 278.25 K | 0.0114
in n-butanol, 283.55 K | 0.0157
in n-butanol, 288.15 K | 0.0205
in n-butanol, 293.15 K | 0.027
in n-butanol, 297.85 K | 0.0349
in n-butanol, 302.65 K | 0.0449
in n-butanol, 307.25 K | 0.0569
in n-butanol, 312.55 K | 0.0743
in n-butanol, 317.35 K | 0.0934
in n-butanol, 323.35 K | 0.123
in n-pentanol, 272.65 K | 0.0117
in n-pentanol, 278.25 K | 0.0147
in n-pentanol, 283.55 K | 0.0182
in n-pentanol, 288.15 K | 0.0219
in n-pentanol, 293.15 K | 0.0264
in n-pentanol, 297.85 K | 0.0314
in n-pentanol, 302.65 K | 0.0373
in n-pentanol, 307.25 K | 0.0437
in n-pentanol, 312.55 K | 0.0521
in n-pentanol, 317.35 K | 0.0609
in n-pentanol, 323.35 K | 0.0733
in n-propanol, 272.65 K | 0.0142
in n-propanol, 278.25 K | 0.0187
in n-propanol, 283.55 K | 0.0243
in n-propanol, 288.15 K | 0.03
in n-propanol, 293.15 K | 0.0377
in n-propanol, 297.85 K | 0.0462
in n-propanol, 302.65 K | 0.0567
in n-propanol, 307.25 K | 0.0687
in n-propanol, 312.55 K | 0.0849
in n-propanol, 317.35 K | 0.102
in n-propanol, 323.35 K | 0.127
